Here are results for two molecules from patent US7655632B2, “Pyrazole derivative, medicinal composition containing the same, medicinal use thereof, and intermediate for production thereof” (Kissei Pharmaceutical Co., Ltd., priority 2002, dated 2010).

One experiment concerns the target T1, human SGLT1 (Homo sapiens, UniProt P13866).
T1 construct: expressed in transfected cells
T1 sequence (P13866 1-664): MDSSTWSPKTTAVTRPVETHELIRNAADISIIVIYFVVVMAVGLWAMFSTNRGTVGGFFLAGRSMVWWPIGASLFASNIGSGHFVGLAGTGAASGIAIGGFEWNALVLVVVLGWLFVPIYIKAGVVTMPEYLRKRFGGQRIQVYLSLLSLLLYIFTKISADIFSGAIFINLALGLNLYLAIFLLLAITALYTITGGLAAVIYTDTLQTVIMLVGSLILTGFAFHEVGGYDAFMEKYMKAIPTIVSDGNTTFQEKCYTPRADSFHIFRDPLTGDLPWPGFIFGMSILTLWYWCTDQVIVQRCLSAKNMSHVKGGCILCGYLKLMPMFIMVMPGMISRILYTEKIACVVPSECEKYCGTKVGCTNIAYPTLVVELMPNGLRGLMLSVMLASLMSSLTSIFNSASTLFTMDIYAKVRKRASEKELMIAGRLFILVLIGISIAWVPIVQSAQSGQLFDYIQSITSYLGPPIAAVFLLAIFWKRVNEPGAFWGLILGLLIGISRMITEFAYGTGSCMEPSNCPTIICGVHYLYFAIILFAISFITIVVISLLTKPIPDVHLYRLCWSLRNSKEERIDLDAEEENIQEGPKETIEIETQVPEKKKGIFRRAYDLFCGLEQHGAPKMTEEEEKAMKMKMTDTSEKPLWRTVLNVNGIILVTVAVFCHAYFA
Description: Assay for inhibitory effects on human SGLT1 activity (uptake of methyl-α-D-glucopyranoside in CS1-5-11D cells). The experiment is classed as cell-based. The note with it: CHO-K1 cells stably expressing human SGLT1 (CS1-5-11D); 1 mM α-MG uptake, 37° C., 1 hour. The procedure:
Assay for Inhibitory Effects on Human SGLT1 Activity
1) Cloning and Construction of the Vector Expressing Human SGLT1
The cDNA library was prepared for PCR amplification by reverse transcription from total RNA deprived from human small intestine (Ori gene) using oligo-dT as a primer. Using this cDNA library as a template, the DNA fragment coding 1 to 2005 bp of human SGLT1 (ACCESSION: M24847), which was reported by Hediger et al., was amplified by PCR method and inserted into the multi-cloning site of pcDNA3.1(−) (Invitrogen). The DNA sequence inserted was perfectly matched to the previously reported sequence.
2) Establishment of Cell Line Stably Expressing Human SGLT1
The expression vector of human SGLT1 was digested by Sca I into a linear DNA. The linear DNA was transfected into CHO-K1 cells by means of lipofection (Effectene Transfection Reagent: QIAGEN). Neomycin resistant cell lines were selected by culture in the medium containing G418 (1 mg/mL, LIFE TECHNOLOGIES), and then the activity against the uptake of methyl-α-D-gluco-pyranoside was measured by the method described below. […] CS1-5-11D cells were cultured in the presence of G418 at 200 μg/mL.
3) Measurement of the Inhibitory Activity Against the Uptake of methyl-α-D-glucopyranoside (α-MG)
CS1-5-11D cells were seeded into a 96-well culture plate at a density of 3×10^4 cells/well and cultured for 2 days, and were used in the uptake assay. A mixture of non-labeled (Sigma) and ^14C-labeled α-MG (Amersham Pharmcia Biotec) was added to the uptake buffer (pH 7.4; containing 140 mM sodium chloride, 2 mM potassium chloride, 1 mM calcium chloride, 1 mM magnesium chloride, 10 mM 2-[4-(2-hydroxyethyl)-1-piperazinyl]ethane sulfonic acid, and 5 mM tris(hydroxymethyl)aminomethane) at the final concentration of 1 mM. A test compound was dissolved in dimethyl sulfoxide, and then appropriately diluted with distilled water. The test compound solution was added to the uptake buffer containing 1 mM α-MG, and designated as a measurement buffer. For the control group, the measurement buffer without any test compound was prepared. For measuring the basal uptake, a basal uptake measurement buffer which contains 140 mM chorine chloride instead of sodium chloride was prepared. After removing the culture medium of CS1-5-11D cells, 180 μL of the pre-treatment buffer (the basal uptake buffer without α-MG) was added to each well and incubated at 37° C. for 10 minutes. After repeating the same treatment, the pre-treatment buffer was removed. To each well was added 75 μL of the measurement buffer or the basal uptake buffer was added and incubated at 37° C. for 1 hour. After removing the measurement buffer, cells were washed twice with 180 μL per well of the washing buffer (the basal uptake buffer containing 10 mM non-labeled α-MG). The cells were solubilized by 75 μL per well of 0.2 mol/L sodium hydroxide. The cell lysates were transferred into PicoPlates (Packard), and then added 150 μL of MicroScint-40 (Packard) and mixed. Radioactivity was measured by means of micro-scintillation counter TopCount (Packard). One hundred % was set to the difference between the uptake in the control group and the basal uptake, and the uptake of methyl α-D-gluco-pyranoside at each drug concentration were calculated.

The test system of a further experiment is diabetic rats. Description: Assay for inhibitory effects on blood glucose level increase in rats (liquid meal tolerance test in diabetic rat model). The class given is in vivo. The conditions noted are these: test compound 1 mg/kg orally, liquid meal 17.25 kcal/kg, mean ± S.E.; for Plasma glucose concentration 0.5 h: 0.5 hour after drug administration; for Plasma glucose concentration 1 h: 1 hour after drug administration; for Plasma glucose concentration 0 h: pretreatment (0 h). The procedure: Assay for Inhibitory Effects on Blood Glucose Level Increase in rats
1) Preparation of Diabetic Rat Model
Male wistar rats (Japan Charles River), aged 8 weeks old, were injected nicotinamide (230 mg/kg) intraperitoneally. Fifteen minutes after injection, they were injected streptozotocin (85 mg/kg) intravenously from tail vain under anesthesia with ether. After a week, rats were fasted overnight and then glucose tolerance test (2 g/kg) was done.
2) Liquid Meal Tolerance Test
After overnight fasted, the diabetic rats were orally administered a test compound (1 mg/kg), which was dissolved in distilled water, in the drug-treating group, or distilled water alone in a control group. Immediately after the compound administration, 17.25 kcal/kg of liquid meal (No. 038, Control diet, assorted with dextrin and maltose; Oriental Yeast Co., Ltd.) was loaded orally. The blood was collected from tail artery immediately before and after administration with the time course, and treated with heparin immediately. The blood was centrifuged, and the plasma was collected to quantify the plasma glucose concentration by glucose oxidase method. The values in the table are presented as the mean ±S.E.

The term IC50 denotes the midpoint of a concentration-inhibition curve. Higher therefore signals lower potency.

On human SGLT1, `CC(C)c1[nH]nc(O[C@@H]2O[C@H](CO)[C@H](O)[C@H](O)[C@H]2O)c1Cc1ccc(CCCC(=O)NC(C)(C)C(=O)N2CCN(CCO)CC2)cc1` [Example 48, 3-(β-D-Galactopyranosyloxy)-4-[(4-{3-[1-{[4-(2-hydroxy-ethyl)piperazin-1-yl]carbonyl}-1-(methyl)ethylcarbamoyl]-propyl}phenyl)methyl]-5-isopropyl-1H-pyrazole] displayed an IC50 of 31 nM. Also, in the experiment with diabetic rats, the “Plasma glucose concentration 0.5 h” value came out at 139 ± 4 mg/dL, the “Plasma glucose concentration 1 h” value is 132 ± 4 mg/dL and the “Plasma glucose concentration 0 h” value was 112 ± 5 mg/dL.
On the same counts, the results for `CC(C)c1[nH]nc(O[C@@H]2O[C@H](CO)[C@H](O)[C@H](O)[C@H]2O)c1Cc1ccc(CCCC(=O)NC(C)(C)C(=O)N2CCN(C)CC2)cc1` [Example 61, 3-(β-D-Galactopyranosyloxy)-5-isopropyl-4-{[4-(3-{1-[(4-methylpiperazin-1-yl)carbonyl]-1-(methyl)ethylcarbamoyl}-propyl)phenyl]methyl}-1H-pyrazole] are 18 nM, 136 ± 6 mg/dL, 172 ± 37 mg/dL and 116 ± 6 mg/dL.
